Experimental findings from patent publication US20230045421A1 (priority 2018, published 2023) are described below.

The assay deals with HBV rcDNA. Put plainly: HepDE19 assay with bDNA quantitation of HBV rcDNA. The assay is classed as cell-based, hepatitis B virus. The procedure: HepDE19 Assay with bDNA Quantitation of HBV rcDNA:
HepDE19 cell culture system is a HepG2 (human hepatocarcinoma) derived cell line that supports HBV DNA replication and cccDNA formation in a tetracycline (Tet)-regulated manner and produces HBV rcDNA and a detectable reporter molecule dependent on the production and maintenance of cccDNA (Guo, et al., 2007, J. Virol. 81:12472-12484).
HepDE19 (50,000 cells/well) were plated in 96-well collagen-coated tissue-culture treated microtiter plates in DMEM/F12 medium supplemented with 10% fetal bovine serum, 1% penicillin-streptomycin and 1 μg/mL tetracycline and incubated in a humidified incubator at 37° C. and 5% CO2 overnight. Next day, the cells were switched to fresh medium without tetracycline and incubated for 4 hours at 37° C. and 5% CO2. The cells were treated with fresh Tet-free medium with compounds at concentrations starting at 25 μM and a serial, […], 8-point, titration series in duplicate. The final DMSO concentration in the assay was 0.5%. The plates were incubated for 7 days in a humidified incubator at 37° C. and 5% CO2. Following a 7 day-incubation, the level of rcDNA present in the inhibitor-treated wells was measured using a Quantigene 2.0 bDNA assay kit (Affymetrix, Santa Clara, Calif.) with HBV specific custom probe set and manufacturers instructions. Concurrently, the effect of compounds on cell viability was assessed using replicate plates, plated at a density of 5,000 cells/well and incubated for 4 days, to determine the ATP content as a measure of cell viability using the cell-titer glo reagent (CTG; Promega Corporation, Madison, Wis.) as per manufacturer's instructions. The plates were read using a Victor luminescence plate reader (PerkinElmer Model 1420 Multilabel counter) and the relative luminescence units (RLU) data generated from each well was calculated as % inhibition of the untreated control wells and analyzed using XL-Fit module in Microsoft Excel to determine EC50 and EC90 (bDNA) and CC50 (CTG) values using a 4-parameter curve fitting algorithm.

Setting [1] is: Hepatitis B virus, HepDE19, HepDE19 assay, inhibition of formation of rcDNA; read-out: DE-19bDNA EC50.
The mark [2] stands for this setting: Hepatitis B virus, HepDE19, HepDE19 assay, inhibition of formation of relaxed circular DNA (rcDNA), bDNA quantitation; read-out: DE-19bDNA EC50.
Where [3] appears, read: read-out: DE-19bDNA EC50; HepDE19 assay, inhibition of formation of relaxed circular DNA (rcDNA), bDNA quantitation.
The mark [4] stands for this setting: HepDE19 assay, inhibition of formation of rcDNA; read-out: DE-19bDNA EC50.
Setting [5] is: HepDE19 assay, inhibition of formation of relaxed circular DNA (rcDNA), bDNA quantitation; read-out: DE-19bDNA EC50.

Where two headings read alike, the source gives them in different places.

One may read the EC50 as the concentration that produces a half-maximal response.

Take `CC(c1c[nH]c(=O)c2ccccc12)N(CC1CCN(C)CC1)C(=O)Nc1ccc(F)c(Cl)c1` (single isomer, unassigned) [Compound 207, 3-(3-Chloro-4-fluorophenyl)-1-((1-methylpiperidin-4-yl)methyl)-1-(1-(1-oxo-1,2-dihydroisoquinolin-4-yl)ethyl)urea]: the half-maximal effective concentration (EC50) under setting [1] was found to be 9 µM.
In the case of `CC(C)CN(C(=O)Nc1ccc(F)c(Cl)c1)C(C)c1c[nH]c(=O)c2cc(F)c(F)cc12` (single isomer, unassigned) [Compound 281, 3-(3-Chloro-4-fluorophenyl)-1-(1-(6,7-difluoro-1-oxo-1,2-dihydroisoquinolin-4-yl)ethyl)-1-isobutylurea], under setting [2], the EC50 is 0.002 µM.
As to `CC(c1c[nH]c(=O)c2c(F)c(F)ccc12)N(C)C(=O)Nc1cccc(Cl)c1` (single isomer, unassigned) [Compound 461, 3-(3-Chlorophenyl)-1-(1-(7,8-difluoro-1-oxo-1,2-dihydroisoquinolin-4-yl)ethyl)-1-methylurea], the EC50 under setting [3] worked out at 0.011 µM.
As for `CC(c1cn(C2CC2)c(=O)c2ccccc12)N(C)C(=O)Nc1ccc(F)c(Cl)c1` (single isomer, unassigned) [Compound 190, 3-(3-Chloro-4-fluorophenyl)-1-(1-(2-cyclopropyl-1-oxo-1,2-dihydroisoquinolin-4-yl)ethyl)-1-methylurea], the EC50 under setting [4] was 0.17 µM.
`CNC(=O)CN(C(=O)Nc1ccc(F)c(Cl)c1)C(C)c1c[nH]c(=O)c2ccccc12` (stereo not shown) [Compound 116, 2-(3-(3-Chloro-4-fluorophenyl)-1-(1-(1-oxo-1,2-dihydroisoquinolin-4-yl)ethyl)ureido)-N-methylacetamide]: under setting [1], the EC50 came to 1 µM.
With `CC(c1c[nH]c(=O)c2cc(F)c(F)cc12)N(C)C(=O)Nc1ccc2cc[nH]c2c1` (single isomer, unassigned) [Compound 486, 1-(1-(6,7-Difluoro-1-oxo-1,2-dihydroisoquinolin-4-yl)ethyl)-3-(1H-indol-6-yl)-1-methylurea], the EC50 under setting [5] is 0.2 µM.
In the case of `CC(C)CN(C(=O)Nc1ccc(F)cc1)C(C)c1c[nH]c(=O)c2c(F)cc(F)cc12` (single isomer, unassigned) [Compound 376, 1-(1-(6,8-Difluoro-1-oxo-1,2-dihydroisoquinolin-4-yl)ethyl)-3-(4-fluorophenyl)-1-isobutylurea], the EC50 under setting [5] was found to be 0.007 µM.
For `C[C@H](c1c[nH]c(=O)c2ccccc12)N(C)C(=O)Nc1ccc(F)cc1` [Compound 90, (R)-3-(4-Fluorophenyl)-1-methyl-1-(1-(1-oxo-1,2-dihydroisoquinolin-4-yl)ethyl)urea], under setting [1], the EC50 was determined as 0.46 µM.
Regarding `CC(c1c[nH]c(=O)c2cc(F)c(F)cc12)N(CCS(N)(=O)=O)C(=O)Nc1ccc(F)c(Cl)c1` (single isomer, unassigned) [Compound 386, 2-(3-(3-Chloro-4-fluorophenyl)-1-(1-(6,7-difluoro-1-oxo-1,2-dihydroisoquinolin-4-yl)ethyl)ureido) ethane-1-sulfonamide], the EC50 under setting [5] is 0.011 µM.
For `CC(c1c[nH]c(=O)c2ccccc12)N(C[C@@H](C)O)C(=O)Nc1ccc(F)c(Cl)c1` (single isomer, unassigned) [Compound 215], the EC50 under setting [4] was determined as 23 µM.
For `CC(c1c[nH]c(=O)c2ccccc12)N(CCCO)C(=O)Nc1ccc(F)c(Cl)c1` (single isomer, unassigned) [Compound 130, 3-(3-Chloro-4-fluorophenyl)-1-(3-hydroxypropyl)-1-(1-(1-oxo-1,2-dihydroisoquinolin-4-yl)ethyl)urea], the concentration giving a half-maximal response (EC50) (read-out: DE-19bDNA EC50; HepDE19 assay, inhibition of formation of rcDNA) came to 7.9 µM.
Regarding `CC(c1c[nH]c(=O)c2ccccc12)N(Cc1nnc[nH]1)C(=O)Nc1ccc(F)c(Cl)c1` (single isomer, unassigned) [Compound 268, 1-((1H-1,2,4-Triazol-5-yl)methyl)-3-(3-chloro-4-fluorophenyl)-1-(1-(1-oxo-1,2-dihydroisoquinolin-4-yl)ethyl)urea], the concentration giving a half-maximal response (EC50) under setting [1] is 2.6 µM.
On to `CC(c1c[nH]c(=O)c2ccc(F)cc12)N(CCS(N)(=O)=O)C(=O)Nc1ccc(F)c(Cl)c1` (single isomer, unassigned) [Compound 381, 2-(3-(3-Chloro-4-fluorophenyl)-1-(1-(6-fluoro-1-oxo-1,2-dihydroisoquinolin-4-yl)ethyl)ureido) ethane-1-sulfonamide], for which the EC50 under setting [5] was found to be 1.4 µM.
`C[C@H](c1c[nH]c(=O)c2ccccc12)N(C)C(=O)Nc1ccc(F)c(C(F)(F)F)c1` [Compound 89, (R)-3-(4-Fluoro-3-(trifluoromethyl)phenyl)-1-methyl-1-(1-(1-oxo-1,2-dihydroisoquinolin-4-yl)ethyl)urea]: the EC50 under setting [1] is 0.32 µM.
For the compound `CC(c1c[nH]c(=O)c2c(F)cc(F)cc12)N(C)C(=O)Nc1ccc(F)cc1` (single isomer, unassigned) [Compound 370, 1-(1-(6,8-Difluoro-1-oxo-1,2-dihydroisoquinolin-4-yl)ethyl)-3-(4-fluorophenyl)-1-methylurea], under setting [5], the EC50 is 5.6 µM.
`CC(c1c[nH]c(=O)c2c(F)cccc12)N(C)C(=O)Nc1ccc(F)c(Cl)c1` (single isomer, unassigned) [Compound 356, 3-(3-Chloro-4-fluorophenyl)-1-(1-(8-fluoro-1-oxo-1,2-dihydroisoquinolin-4-yl)ethyl)-1-methylurea]: under setting [5], the EC50 came out at 1.9 µM.
As for `CC(c1cnc(-n2ccnn2)c2ccccc12)N(C)C(=O)Nc1ccc(F)c(Cl)c1` (single isomer, unassigned) [Compound 424, 1-(1-(1-(1H-1,2,3-Triazol-1-yl)isoquinolin-4-yl)ethyl)-3-(3-chloro-4-fluorophenyl)-1-methylurea], the EC50 under setting [5] was 6.4 µM.
As to `COc1ncc(C(C)N(C(=O)Nc2ccc(F)c(Cl)c2)C2CC2)c2ccccc12` (single isomer, unassigned) [Compound 56, 3-(3-Chloro-4-fluorophenyl)-1-cyclopropyl-1-(1-(1-methoxyisoquinolin-4-yl)ethyl)urea], under setting [4], the EC50 was 13 µM.
As to `CC(c1c[nH]c(=O)c2c(F)c(F)ccc12)N(C)C(=O)Nc1cc(F)c(F)c(F)c1` (single isomer, unassigned) [Compound 443, 1-(1-(7,8-Difluoro-1-oxo-1,2-dihydroisoquinolin-4-yl)ethyl)-1-methyl-3-(3,4,5-trifluorophenyl)urea], the EC50 under setting [5] stood at 0.04 µM.
Consider `COCCN(C(=O)Nc1ccc(F)c(Cl)c1)C(C)c1cnc(OC)c2ccccc12` (single isomer, unassigned) [Compound 73, 3-(3-Chloro-4-fluorophenyl)-1-(2-methoxyethyl)-1-(1-(1-methoxyisoquinolin-4-yl)ethyl)urea], for which the EC50 under setting [4] came to 0.78 µM.
As for `CCN(C(=O)Nc1ccccc1)C(C)c1c[nH]c(=O)c2c(F)c(F)ccc12` (single isomer, unassigned) [Compound 467, 1-(1-(7,8-Difluoro-1-oxo-1,2-dihydroisoquinolin-4-yl)ethyl)-1-ethyl-3-phenylurea], the EC50 under setting [3] amounted to 0.066 µM.
`CCC(c1cnc(OC)c2ccccc12)N(CC)C(=O)Nc1ccc(F)c(Cl)c1` (single isomer, unassigned) [Compound 38, 3-(3-Chloro-4-fluorophenyl)-1-ethyl-1-(1-(1-methoxyisoquinolin-4-yl)propyl)urea]: under setting [4], the EC50 amounted to 18 µM.
Consider `CNC(=O)CCN(C(=O)Nc1ccc(F)c(Cl)c1)C(C)c1c[nH]c(=O)c2ccccc12` (single isomer, unassigned) [Compound 117, 3-(3-(3-Chloro-4-fluorophenyl)-1-(1-(1-oxo-1,2-dihydroisoquinolin-4-yl)ethyl)ureido)-N-methylpropanamide], for which the EC50 under setting [4] was determined as 13 µM.
On to `COCCOCCN(C(=O)Nc1ccc(F)c(Cl)c1)C(C)c1cnc(OC)c2ccccc12` (single isomer, unassigned) [Compound 122, 3-(3-Chloro-4-fluorophenyl)-1-(2-(2-methoxyethoxy)ethyl)-1-(1-(1-methoxyisoquinolin-4-yl)ethyl)urea], for which the EC50 under setting [4] is 1.2 µM.
As for `CC(c1cnc(-n2ccnn2)c2ccccc12)N(C)C(=O)Nc1ccc(F)c(Cl)c1` (racemic) [Compound 354, 1-(1-(1-(1H-1,2,3-triazol-1-yl)isoquinolin-4-yl)ethyl)-3-(3-chloro-4-fluorophenyl)-1-methylurea], the EC50 under setting [2] worked out at 0.13 µM.
